Our source for the class values is patent US20050197350A1, “Novel quinoline, tetrahydroquinazoline, and pyrimidine derivatives and methods of treatment related to the use thereof” (TAISHO PHARMACEUTICAL CO., LTD., priority 2003, published 2005).

One experiment relates to MCH receptors. In words: MCH receptor activity class (method not given). Particulars: MCH receptor activity class 1-3 (percent of control at 10^-7 M or IC50).
Consider `Cc1cccc(C(C)(C)C)c1NC(=O)NC[C@H]1CC[C@@H](Nc2cc(N(C)C)c3ccccc3n2)CC1` [compound 2383, N-(2-tert-butyl-6-methylphenyl)-N′-[(cis-4-{[4-(dimethylamino)quinolin-2-yl]amino}cyclohexyl)methyl]urea], for which the class was 1 (Class 1: The value of percent of control at 10^−7 M was less than 40% or the value of IC50 was less than 50 nM.).

The experiment is the same for the next values; noted with them: MCH receptor; class by percent of control at 10^-7 M or IC50.
For the compound `CN(C)c1cc(N[C@H]2CC[C@@H](CNC(=O)c3cccc(OC(F)(F)F)c3)CC2)nc2ccccc12` [compound 181, N-[(cis-4-{[4-(dimethylamino)quinolin-2-yl]amino}cyclohexyl)methyl]-3-(trifluoromethoxy)benzamide], the class is reported as 3 (Class 3 The value of percent of control at 10^−7 M was more than 60% or the value of IC50 was more than 200 nM.).

With `CN(C)c1nc(N[C@H]2CC[C@@H](NC(=S)Nc3ccc(OC(F)(F)F)cc3)CC2)nc2c1CCCC2` [compound 1988], the class is recorded as 3 (Class 3 The value of percent of control at 10^−7 M was more than 60% or the value of IC50 was more than 200 nM.).

Turning to `CN(C)c1nc(N[C@H]2CC[C@@H](NC(=S)Nc3ccc(S(N)(=O)=O)cc3)CC2)nc2c1CCCC2` [compound 2051], the class is on record as 3 (Class 3 The value of percent of control at 10^−7 M was more than 60% or the value of IC50 was more than 200 nM.).

In the case of `CN(C)c1cc(N[C@H]2CC[C@@H](NC(=O)c3cccc(Br)c3)CC2)nc2ccccc12` [compound 21], the class was 1 (Class 1: The value of percent of control at 10^−7 M was less than 40% or the value of IC50 was less than 50 nM.).

In the case of `COc1ccc(CC(=O)N[C@H]2CC[C@@H](Nc3cc(N(C)C)c4ccccc4n3)CC2)cc1OC` [compound 123], the class is 3 (Class 3 The value of percent of control at 10^−7 M was more than 60% or the value of IC50 was more than 200 nM.).

Regarding `Cc1onc(-c2ccccc2Cl)c1C(=O)N[C@H]1CC[C@@H](Nc2cc(N(C)C)c3ccccc3n2)CC1` [compound 98], the class is listed as 1 (Class 1: The value of percent of control at 10^−7 M was less than 40% or the value of IC50 was less than 50 nM.).

Staying with this experiment, now noted: activity class 1-3: percent of control at 10^-7 M or IC50.
On to `CN(C)c1ccnc(N[C@H]2CC[C@@H](CNC(=O)OCc3ccccc3Cl)CC2)n1` [compound 1656], for which the class is 3 (Class 3 The value of percent of control at 10^−7 M was more than 60% or the value of IC50 was more than 200 nM.).

As to `CN(C)c1nc(N[C@H]2CC[C@@H](NC(=O)Nc3c(Cl)cccc3C(F)(F)F)CC2)nc2c1CCCC2` [compound 1673], the class is listed as 3 (Class 3 The value of percent of control at 10^−7 M was more than 60% or the value of IC50 was more than 200 nM.).

For the compound `CN(C)c1ccnc(N[C@H]2CC[C@@H](NCCN(CCC#N)c3ccccc3)CC2)n1` [compound 1524], the class is 3 (Class 3 The value of percent of control at 10^−7 M was more than 60% or the value of IC50 was more than 200 nM.).

The experiment is the same for the next values; noted with them: activity class per percent of control at 10^-7 M or IC50.
Regarding `COc1cccc(OC)c1CNC[C@H]1CC[C@@H](Nc2cc(N(C)C)c3ccccc3n2)CC1` [compound 1122], the class is recorded as 2 (Class 2: The value of percent of control at 10^−7 M was from 40% to 60% or the value of IC′50 was from 50 nM to 200 nM.).

With `CN(C)c1cc(N[C@H]2CC[C@@H](CNCc3ccc4c(c3)OCCO4)CC2)nc2ccccc12` [compound 1142], the class is reported as 3 (Class 3 The value of percent of control at 10^−7 M was more than 60% or the value of IC50 was more than 200 nM.).

Take `CN(C)c1nc(N[C@H]2CC[C@@H](NC(=O)c3cc(Br)c(Br)o3)CC2)nc2c1CCCC2` [compound 982]: the class is 1 (Class 1: The value of percent of control at 10^−7 M was less than 40% or the value of IC50 was less than 50 nM.).

The experiment is the same for the next values; noted with them: class 1-3 by percent of control at 10^-7 M or IC50.
Turning to `CN(C)c1nc(N[C@H]2CC[C@@H](NC(=O)c3ccc(F)c(Cl)c3F)CC2)nc2c1CCCC2` [compound 498], the class was 3 (Class 3 The value of percent of control at 10^−7 M was more than 60% or the value of IC50 was more than 200 nM.).

Turning to `CN(C)c1ccnc(N[C@H]2CC[C@@H](CNC(=O)Cc3ccccc3Br)CC2)n1` [compound 425], the class was 2 (Class 2: The value of percent of control at 10^−7 M was from 40% to 60% or the value of IC′50 was from 50 nM to 200 nM.).

Staying with this experiment, now noted: class by percent of control at 10^-7 M or IC50.
With `CC(C)c1cccc(C(C)C)c1NC(=O)N[C@H]1CC[C@@H](Nc2nc3c(c(N(C)C)n2)CCCC3)CC1` [compound 1797, N-(2,6-diisopropylphenyl)-N′-(cis-4-{[4-(dimethylamino)-5,6,7,8-tetrahydroquinazolin-2-yl]amino}cyclohexyl)urea], the class was 2 (Class 2: The value of percent of control at 10^−7 M was from 40% to 60% or the value of IC′50 was from 50 nM to 200 nM.).

As for `CCOc1ccccc1NC(=O)N[C@H]1CC[C@@H](Nc2nccc(N(C)C)n2)CC1` [compound 2232], the class was 3 (Class 3 The value of percent of control at 10^−7 M was more than 60% or the value of IC50 was more than 200 nM.).

As to `CN(C)c1cc(N[C@H]2CC[C@@H](NC(=O)Nc3c(F)cc(Br)cc3F)CC2)nc2ccccc12` [compound 2116], the class is 3 (Class 3 The value of percent of control at 10^−7 M was more than 60% or the value of IC50 was more than 200 nM.).

With `CCOc1cccc(CN[C@H]2CC[C@@H](Nc3cc(N(C)C)c4ccccc4n3)CC2)c1` [compound 1452], the class was 3 (Class 3 The value of percent of control at 10^−7 M was more than 60% or the value of IC50 was more than 200 nM.).

Regarding `CN(C)c1nc(NC2CCC(NC(=S)NC3CC4CCC3C4)CC2)nc2c1CCCC2` (stereo not shown) [compound 1790], the class is 3 (Class 3 The value of percent of control at 10^−7 M was more than 60% or the value of IC50 was more than 200 nM.).

In the case of `CCOc1c(Br)cc(Br)cc1CNC[C@H]1CC[C@@H](Nc2nc3c(c(N(C)C)n2)CCCC3)CC1` [compound 1446], the class is 3 (Class 3 The value of percent of control at 10^−7 M was more than 60% or the value of IC50 was more than 200 nM.).

As for `COc1ccccc1CCNC[C@H]1CC[C@@H](Nc2nc3c(c(N(C)C)n2)CCCC3)CC1` [compound 1504], the class was 3 (Class 3 The value of percent of control at 10^−7 M was more than 60% or the value of IC50 was more than 200 nM.).

`CN(C)c1nc(N[C@H]2CC[C@@H](CNCc3ccccc3SC(F)(F)F)CC2)nc2c1CCCC2` [compound 1407]: the class is given as 3 (Class 3 The value of percent of control at 10^−7 M was more than 60% or the value of IC50 was more than 200 nM.).

Regarding `CN(C)c1ccnc(N[C@H]2CC[C@@H](NC(=O)c3cccc(Cl)c3F)CC2)n1` [compound 277], the class is on record as 3 (Class 3 The value of percent of control at 10^−7 M was more than 60% or the value of IC50 was more than 200 nM.).

For the compound `CN(C)c1nc(N[C@H]2CC[C@@H](NC(=S)Nc3ccc4c(c3)OCO4)CC2)nc2c1CCCC2` [compound 1785], the class is reported as 3 (Class 3 The value of percent of control at 10^−7 M was more than 60% or the value of IC50 was more than 200 nM.).

As to `CC(C(=O)N[C@H]1CC[C@@H](Nc2cc(N(C)C)c3ccccc3n2)CC1)c1ccc(C(=O)c2cccs2)cc1` (relative stereo) [compound 744], the class is recorded as 3 (Class 3 The value of percent of control at 10^−7 M was more than 60% or the value of IC50 was more than 200 nM.).

As to `CN(C)c1nc(N[C@H]2CC[C@@H](CNCc3ccc(OCc4ccc(Br)cc4)cc3)CC2)nc2c1CCCC2` [compound 1445], the class was 3 (Class 3 The value of percent of control at 10^−7 M was more than 60% or the value of IC50 was more than 200 nM.).

In the case of `COc1cc(CN[C@H]2CC[C@@H](Nc3nccc(N(C)C)n3)CC2)cc(I)c1O` [compound 1222], the class is listed as 3 (Class 3 The value of percent of control at 10^−7 M was more than 60% or the value of IC50 was more than 200 nM.).

Take `CCc1ccccc1NC(=O)N[C@H]1CC[C@@H](Nc2nccc(N(C)C)n2)CC1` [compound 2197]: the class is given as 3 (Class 3 The value of percent of control at 10^−7 M was more than 60% or the value of IC50 was more than 200 nM.).

Consider `CCn1c2ccccc2c2cc(CNC[C@H]3CC[C@@H](Nc4nc5c(c(N(C)C)n4)CCCC5)CC3)ccc21` [compound 1394], for which the class is given as 3 (Class 3 The value of percent of control at 10^−7 M was more than 60% or the value of IC50 was more than 200 nM.).

Take `CC(C)S(=O)(=O)c1csc(C(=O)N[C@H]2CC[C@@H](Nc3nccc(N(C)C)n3)CC2)c1Cl` [compound 319]: the class is listed as 3 (Class 3 The value of percent of control at 10^−7 M was more than 60% or the value of IC50 was more than 200 nM.).

`Cc1ccc(C(=O)CC(SCc2ccc(Cl)cc2)C(=O)N[C@H]2CC[C@@H](Nc3cc(N(C)C)c4ccccc4n3)CC2)cc1` (relative stereo) [compound 742]: the class is 3 (Class 3 The value of percent of control at 10^−7 M was more than 60% or the value of IC50 was more than 200 nM.).

For the compound `COc1ccc([N+](=O)[O-])cc1NC(=O)N[C@H]1CC[C@@H](Nc2nc3c(c(N(C)C)n2)CCCC3)CC1` [compound 1862], the class is recorded as 3 (Class 3 The value of percent of control at 10^−7 M was more than 60% or the value of IC50 was more than 200 nM.).

For the compound `CN(C)c1cc(N[C@H]2CC[C@@H](NC(=O)CCc3ccccc3O)CC2)nc2ccccc12` [compound 679], the class is 3 (Class 3 The value of percent of control at 10^−7 M was more than 60% or the value of IC50 was more than 200 nM.).

In the case of `CSc1ccc(Cl)c(C(=O)N[C@H]2CC[C@@H](Nc3nccc(N(C)C)n3)CC2)c1` [compound 920], the class is recorded as 3 (Class 3 The value of percent of control at 10^−7 M was more than 60% or the value of IC50 was more than 200 nM.).

Staying with this experiment, now noted: class by percent of control at 10^−7 M or IC50.
Consider `Cc1cnc(N[C@H]2CC[C@@H](C(=O)Nc3ccccc3Br)CC2)nc1N(C)C` [compound 2789], for which the class is 3 (Class 3 The value of percent of control at 10^−7 M was more than 60% or the value of IC50 was more than 200 nM.).

On to `Cc1ccc(C(=O)N[C@H]2CC[C@@H](Nc3nc(C)cc(N(C)C)n3)CC2)cc1` [compound 2985, N-(cis-4-{[4-(dimethylamino)-6-methylpyrimidin-2-yl]amino}cyclohexyl)-4-methylbenzamide], for which the class was 1 (Class 1: The value of percent of control at 10^−7 M was less than 40% or the value of IC50 was less than 50 nM.).
